How the values were obtained:
Format in all cases: in vivo
nondiabetic rats [1] = assay: Hypoglycemic efficacy of oral insulin (Musulin) compared to subcutaneous and intraperitoneal injections in rats; conditions: 1.67 unit every 5 minutes
Procedure: All rats weighed 50-80 gms, age of the rats was 1 month. Group 1 (control—placebo): 6 rats; Group 2 (Musulin™): 6 rats; Group 3 (Musulin™): 5 rats; Group 4 (Musulin™): 5 rats; Group 5 (intraperitoneal injection): 5 rats; and Group 6 (subcutaneous injection): 5 rats. All rats were fasted 2 hrs before experiments. They were lightly anesthesized by ether. Neck skin was dissected and the jugular vein was exposed. 0.1 ml of blood was drawn at times 0, 5, 10,15, 30, 60, 90, 120, 150, 180, 210, 240, 270, 300 minutes for glucose measurement by Abbott's Precision glucose monitor. In order to ensure the maximal exposure and absorption of Musulin™ in the rats' tiny oral cavities, the rats were fed constant amounts at preset time periods. […] Group 3 received 3.33 units and Group 4 received 6.67 units every 5 minutes.
All data were analysed using SAS system, Version 6.12. in 2 ways: 1) Simultaneous comparison of multiple groups by Dunnett's t test at 5% significance level. 2) Comparison of slopes of the glucose reduction rate by repeated measures analysis of variance method by the “Mixed Procedure” of the SAS system software.

nondiabetic rats [2] = assay: Transdermal insulin (Dermulin) vs subcutaneous insulin injection, blood glucose in rats; conditions: for Percent of glucose reduction compared to initial levels: Group 4: subcutaneous 12.5 u insulin
Procedure: All rats weighed 50-80 gms, aged 1 month. Group 1 (control—placebo): 6 rats, Group 2 (Dermulin™, 12.5 u): 5 rats, Group 3 (Dermulin™, 25 u): 5 rats, Group 4 (subcutaneous injection): 5 rats.
(§1) All rats were fasted 2 hrs before experiments. They were lightly anesthesized by ether. Neck skin was dissected and jugular vein was exposed. 0.1 ml of blood was drawn at time 0, 5, 10, 15, 30, 60, 90, 120, 150, 180, 210, 240, 270, 300 minutes for glucose measurement by Abbott's Precision glucose monitor. Hair was shaved from the abdomen. Group 2 and Group 3 had 12.5 u and 25 u of Dermulin™ applied to the abdominal skin respectively.
All data were analyzed using SAS system, Version 6.12. in 2 ways: 1) Simultaneous comparison of multiple groups by Dunnett's t test at 5% significance level. 2) Comparison of slopes of the glucose reduction rate by repeated measures analysis of variance method by the” Mixed Procedure” of the SAS system software.

nondiabetic rats [3] = assay: Transdermal insulin (Dermulin) vs intraperitoneal insulin injection, blood glucose in rats; conditions: for Percent of glucose reduction: Group 4: intraperitoneal 12.5 u insulin
Procedure: All rats weighed 50-80 gms, aged 1 month. Group 1 (control—placebo): 6 rats, Group 2 (Dermulin™, 12.5 u): 5 rats, Group 3 (Dermulin™, 25 u): 5 rats, Group 4 (intraperitoneal injection): 5 rats.
as §1, with “Group3” for “Group 3”
All data were analyzed using SAS system, Version 6.12. in 2 ways: 1) Simultaneous comparison of multiple groups by Dunnett's t test at 5% significance level. 2) Comparison of slopes of the glucose reduction rate by repeated measures analysis of variance method by the “Mixed Procedure” of the SAS system software.

[4] = Group 6: subcutaneous insulin injection
[5] = Group 4: single subcutaneous injection of 12.5 u insulin
[6] = Group 5: intraperitoneal insulin injection
[7] = Group 4: single intraperitoneal injection of 12.5 u insulin

subcutaneous injection: injection control: insulin (Humalog) by subcutaneous injection
Death from hypoglycemia within 300 minutes (nondiabetic rats [1]; [4]): 100% | Rate of glucose reduction at the maximal slope (nondiabetic rats [1]; [4]): -0.51 mg/min | Statistically significant onset of action (nondiabetic rats [1]; [4]): 10 min | time for 50% rats to achieve 50% glucose reductions (nondiabetic rats [1]; [4]): 15 min | Percent mean reduction of glucose compared to initial levels (nondiabetic rats [1]; Group 6: subcutaneous insulin injection, at 60 minutes): 39.8 (25.5) Percent | Percent mean reduction of glucose compared to initial levels (nondiabetic rats [1]; Group 6: subcutaneous insulin injection, at 120 minutes): 25.5 (s.d. 31.7) Percent | Percent mean reduction of glucose compared to initial levels (nondiabetic rats [1]; Group 6: subcutaneous insulin injection, at 300 minutes): 41.1% | Rate of glucose reduction at the slope between 30-120 min. (nondiabetic rats [2]; [5]): -0.5 mg/min | Statistically significant onset of action (nondiabetic rats [2]; [5]): 5 min | Percent of glucose reduction compared to initial levels (nondiabetic rats [2]; at 60 minutes): 28 (s.d. 13.4) Percent | Percent of glucose reduction compared to initial levels (nondiabetic rats [2]; at 120 minutes): 21.9 (s.d. 13) Percent | Percent of glucose reduction compared to initial levels (nondiabetic rats [2]; at 180 minutes): 17.2 (s.d. 14.1) Percent | Percent of glucose reduction compared to initial levels (nondiabetic rats [2]; at 300 minutes): 0%

intraperitoneal injection: injection control: insulin given intraperitoneally
Death from hypoglycemia within 300 minutes (nondiabetic rats [1]; [6]): 80% | Rate of glucose reduction at the maximal slope (nondiabetic rats [1]; [6]): -0.54 mg/min | Statistically significant onset of action (nondiabetic rats [1]; [6]): 10 min | time for 50% rats to achieve 50% glucose reductions (nondiabetic rats [1]; [6]): 13 min | Percent mean reduction of glucose compared to initial levels (nondiabetic rats [1]; Group 5: intraperitoneal insulin injection, at 60 minutes): 30.4 (s.d. 3.8) Percent | Percent mean reduction of glucose compared to initial levels (nondiabetic rats [1]; Group 5: intraperitoneal insulin injection, at 120 minutes): 18.7 (s.d. 15.2) Percent | Percent mean reduction of glucose compared to initial levels (nondiabetic rats [1]; Group 5: intraperitoneal insulin injection, at 300 minutes): 0 (s.d. 0) Percent | Percent of glucose reduction (nondiabetic rats [3]; at 60 minutes): 26.1 (s.d. 13.4) Percent | Percent of glucose reduction (nondiabetic rats [3]; at 120 minutes): 16.5 (s.d. 13) Percent | Percent of glucose reduction (nondiabetic rats [3]; at 180 minutes): 25.8 (s.d. 14.1) Percent | Percent of glucose reduction (nondiabetic rats [3]; at 300 minutes): 27.8 (s.d. 33.6) Percent | Rate of glucose reduction at the slope (nondiabetic rats [3]; [7]): -0.5 mg/min | Statistically significant onset of action (nondiabetic rats [3]; [7]): 5 min
